In PMC6295246 (Clinical cancer research : an official journal of the …, 2018):

Assays:
[1] = tested on: relapsed or refractory neuroblastoma; assay: Progression-free survival; type: in vivo, human; details: pooled Phase 1/2/OS
[2] = tested on: relapsed and refractory neuroblastoma; details: phase 1, with irinotecan and temozolomide; cited from earlier work
[3] = Alisertib plasma pharmacokinetics; type: in vivo, human; details: pooled phase 1, phase 2 and OS cohorts
[4] = tested on: relapsed or refractory neuroblastoma; assay: Best objective response; type: in vivo, human; details: pooled Phase 1/2/OS
[5] = Alisertib Day 5 trough > median, N=21
[6] = Alisertib Day 5 trough ≤ median, N=21
[7] = Alisertib exposure > median, N=21
[8] = Alisertib exposure ≤ median, N=21

## COc1cc(Nc2ncc3c(n2)-c2ccc(Cl)cc2C(c2c(F)cccc2OC)=NC3)ccc1C(=O)O [alisertib]
[1]; > 2 Prior regimens, N=17
  1-Yr PFS: 32%
[1]; AURKA Codon 31 wild type, N=27
  1-Yr PFS: 32%
[1]; AURKA Codon 57 heterozygote, N=13
  1-Yr PFS: 43%
[1]; Age ≥ 4 years, N=47
  1-Yr PFS: 42%
[1]; Age ≥ 8 years, N=26
  1-Yr PFS: 47%
[1]; Alisertib Cmax > median, N=21
  1-Yr PFS: 28%
[1]; Alisertib Cmax ≤ median, N=21
  1-Yr PFS: 55%
[1]; [5]
  1-Yr PFS: 45%
[1]; [6]
  1-Yr PFS: 33%
[1]; [7]
  1-Yr PFS: 41%
[1]; [8]
  1-Yr PFS: 38%
[1]; Lin 28B protein −, N=13
  1-Yr PFS: 34%
[1]; MYCN amplified or Myc/Mycn +, N=18
  1-Yr PFS: 12%
[1]; MYCN non-amplified, N=33
  1-Yr PFS: 47%
[1]; No prior irinotecan, N=36
  1-Yr PFS: 43%
[1]; No prior temozolomide, N=37
  1-Yr PFS: 41%
[1]; Prior temozolomide, N=17
  1-Yr PFS: 32%
[1]; UGT1A1 genotype 6 / 6, N=17
  1-Yr PFS: 57%
[1]; UGT1A1 genotype 6 / 7, N=17
  1-Yr PFS: 26%
[1]; UGT1A1 genotype 7 / 7, N=5
  1-Yr PFS: 40%
[1]; ≤ 2 Prior regimens, N=37
  1-Yr PFS: 42%
[2]
  estimated progression-free survival (PFS) rate at 2 years: 52%
  response rate: 31.8%
[3]
  alisertib Day 5 trough in the first cycle, median: 0.46 µM
[4]; > 2 Prior regimens, N=17
  Objective Response: 24%
[4]; AURKA Codon 31 heterozygote, N=12
  Objective Response: 25%
[4]; AURKA Codon 31 wild type, N=27
  Objective Response: 19%
[4]; AURKA Codon 57 wild type, N=27
  Objective Response: 19%
[4]; Age < 8 years, N=28
  Objective Response: 18%
[4]; Age ≥ 4 years, N=47
  Objective Response: 26%
[4]; Age ≥ 8 years, N=26
  Objective Response: 27%
[4]; Alisertib Cmax > median, N=21
  Objective Response: 19%
[4]; Alisertib Cmax ≤ median, N=21
  Objective Response: 24%
[4]; [5]
  Objective Response: 24%
[4]; [6]
  Objective Response: 19%
[4]; [7]
  Objective Response: 19%
[4]; [8]
  Objective Response: 24%
[4]; Aurora A protein +, N=12
  Objective Response: 17%
[4]; Aurora A protein −, N=18
  Objective Response: 22%
[4]; Lin28B protein +, N=17
  Objective Response: 12%
[4]; MYCN non-amplified, N=33
  Objective Response: 27%
[4]; No prior irinotecan, N=36
  Objective Response: 28%
[4]; No prior temozolomide, N=37
  Objective Response: 27%
[4]; Prior temozolomide, N=17
  Objective Response: 12%
[4]; UGT1A1 genotype 6 / 6, N=17
  Objective Response: 35%
[4]; UGT1A1 genotype 6 / 7, N=17
  Objective Response: 6%
[4]; UGT1A1 genotype 7 / 7, N=5
  Objective Response: 20%
[4]; ≤ 2 Prior regimens, N=37
  Objective Response: 22%
